From US7452951B2, “Multifunctional self-decontaminating surface coating” (priority 2004, dated 2008)

How the values were obtained:
[1] = test system: Escherichia coli (Gram−); assay: Minimum inhibitory concentration (MIC) study of quaternary ammonium biocides; type: cell-based; conditions: unit assumed
[2] = test system: B. anthracis Sterne strain (Gram+); type: cell-based, Bacillus anthracis Sterne strain; conditions: unit assumed
[3] = test system: Salmonella typhimurium (Gram−); assay: Minimum inhibitory concentration (MIC) study of quaternary ammonium biocides; type: cell-based; conditions: unit assumed
[4] = test system: S. aureus (Gram+); assay: as above; type: cell-based, Staphylococcus aureus; conditions: unit assumed
[5] = test system: B. anthracis Sterne; type: cell-based, Bacillus anthracis Sterne strain
[6] = test system: E. coli; assay: Tube dilution method with neutralizing agent to quench residual biocide activity; type: cell-based, Escherichia coli; conditions: starting cfu/mL 4.76 × 10^7; NG = no growth
[7] = test system: S. aureus; assay: as above; type: cell-based, Staphylococcus aureus; conditions: starting cfu/mL 5.46 × 10^7; NG = no growth

**Q.** For `CCCCCC[N+](C)(C)CCOC.[Br-]` [Entry 1, Hexyl-(2-methoxy-ethyl)-dimethyl-ammonium bromide], which MIC E. coli (Gram−) [1] is on record?
**A.** 2.5 µg/mL

**Q.** And the MIC B. anthracis (Gram+) [2]?
**A.** 5 µg/mL

**Q.** And the MIC S. typhimurium (Gram−) [3]?
**A.** 2.5 µg/mL

**Q.** What about the MIC S. aureus (Gram+) [4] of the same molecule?
**A.** 2.5 µg/mL

**Q.** For `CCCCCC[N+](C)(C)CCOCCOC.[Br-]` [Entry 2, Hexyl-[2-(2-methoxy-ethoxy)-ethyl]-dimethyl-ammonium bromide], which MIC E. coli (Gram−) [1] is on record?
**A.** 2.5 µg/mL

**Q.** What about the MIC B. anthracis (Gram+) [2] of the same molecule?
**A.** > 5 µg/mL

**Q.** And the MIC S. typhimurium (Gram−) [3]?
**A.** > 5 µg/mL

**Q.** And the MIC S. aureus (Gram+) [4]?
**A.** > 5 µg/mL

**Q.** With `CCCCCC[N+](C)(C)CCOCCOCCOC.[Cl-]` [Entry 3] as the molecule, how does the MIC E. coli (Gram−) [1] read?
**A.** 2.5 µg/mL

**Q.** What about the MIC B. anthracis (Gram+) [2] of the same molecule?
**A.** 2.5 µg/mL

**Q.** What about the MIC S. typhimurium (Gram−) [3] of the same molecule?
**A.** > 5 µg/mL

**Q.** What about the MIC S. aureus (Gram+) [4] of the same molecule?
**A.** > 5 µg/mL

**Q.** Which results are given for `CCCCCC[N+](C)(C)CCOCCOCCOCCOC.[Cl-]` [Entry 4]?
**A.** MIC E. coli (Gram−) [1]: 2.5 µg/mL; MIC B. anthracis (Gram+) [2]: 5 µg/mL; MIC S. typhimurium (Gram−) [3]: 5 µg/mL; MIC S. aureus (Gram+) [4]: 2.5 µg/mL

**Q.** With `CCCCCCCC[N+](C)(C)CCOC.[Cl-]` [Entry 5] as the molecule, how does the MIC E. coli (Gram−) [1] read?
**A.** 0.625 µg/mL

**Q.** What about the MIC B. anthracis (Gram+) [2] of the same molecule?
**A.** < 0.312 µg/mL

**Q.** And the MIC S. typhimurium (Gram−) [3]?
**A.** 2.5 µg/mL

**Q.** And the MIC S. aureus (Gram+) [4]?
**A.** 0.18 µg/mL

**Q.** `CCCCCCCC[N+](C)(C)CCOCCOC.[Cl-]` [Entry 6] was tested. Which MIC E. coli (Gram−) [1] did it give?
**A.** 2.5 µg/mL

**Q.** What about the MIC B. anthracis (Gram+) [2] of the same molecule?
**A.** 1.25 µg/mL

**Q.** What about the MIC S. typhimurium (Gram−) [3] of the same molecule?
**A.** 5 µg/mL

**Q.** What about the MIC S. aureus (Gram+) [4] of the same molecule?
**A.** 0.31 µg/mL

**Q.** Which results are given for `CCCCCCCC[N+](C)(C)CCOCCOCCOC.[Cl-]` [Entry 7]?
**A.** MIC E. coli (Gram−) [1]: 2.5 µg/mL; MIC B. anthracis (Gram+) [2]: 0.625 µg/mL; MIC S. typhimurium (Gram−) [3]: 2.5 µg/mL; MIC S. aureus (Gram+) [4]: 0.5 µg/mL

**Q.** How did the MIC E. coli (Gram−) [1] turn out when `CCCCCCCC[N+](C)(C)CCOCCOCCOCCOC.[Cl-]` [Entry 8] was run?
**A.** 1.25 µg/mL

**Q.** What about the MIC B. anthracis (Gram+) [2] of the same molecule?
**A.** 0.312 µg/mL

**Q.** What about the MIC S. typhimurium (Gram−) [3] of the same molecule?
**A.** 2.5 µg/mL

**Q.** And the MIC S. aureus (Gram+) [4]?
**A.** 0.8 µg/mL

**Q.** With `CCCCCCCC[N+](C)(C)CCOCCO.[Cl-]` [Entry 9, Octyl-(2-(2-hydroxy-ethoxy)-ethyl)dimethylammonium chloride] as the molecule, how does the MIC E. coli (Gram−) [1] read?
**A.** 5 µg/mL

**Q.** And the MIC B. anthracis (Gram+) [2]?
**A.** 1.25 µg/mL

**Q.** What about the MIC S. typhimurium (Gram−) [3] of the same molecule?
**A.** 5 µg/mL

**Q.** What about the MIC S. aureus (Gram+) [4] of the same molecule?
**A.** 1.25 µg/mL

**Q.** `CCCCCC[N+](C)(C)CCOCCO.[Cl-]` [Entry 10, Hexyl-(2-(2-hydroxy-ethoxy)-ethyl)dimethylammonium chloride] was tested. Which MIC E. coli (Gram−) [1] did it give?
**A.** 5 µg/mL

**Q.** What about the MIC B. anthracis (Gram+) [2] of the same molecule?
**A.** > 5 µg/mL

**Q.** What about the MIC S. typhimurium (Gram−) [3] of the same molecule?
**A.** > 5 µg/mL

**Q.** And the MIC S. aureus (Gram+) [4]?
**A.** > 5 µg/mL

**Q.** How did the “B. anthracis S.S. count after biocide, tube dilution method” value [5] turn out when `c1ccncc1` [Pyridinium] was run?
**A.** 10^6 cfu/mL

**Q.** What about the “E. Coli count after biocide, tube dilution method” value [6] of the same molecule?
**A.** 10^7 cfu/mL

**Q.** What about the “S. aureus count after biocide, tube dilution method” value [7] of the same molecule?
**A.** 10^6 cfu/mL
